Measurements published in the supplement of paper PMC10307832.

Legend:
Assay in all cases: relative viability (nuclei count vs DMSO), 5 days (fraction); higher = more cells survive
[1] = compound: COC1=CC=C(C=C1)CN2C=CC3=C2C=C(C=C3)C(=O)NO + Cc1cc(Nc2cc(N3CCN(C)CC3)nc(Sc3ccc(NC(=O)C4CC4)cc3)n2)n[nH]1 [Tozasertib] (partner 0.1 µM)
Method in brief: (§1)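 After 5 days of treatment, lung cancer cells in 1536-well plates were fixed and stained in a single step (final 0.05% Triton X-100, 1% formaldehyde, 1 ug/ml Hoechst) and their nuclei counted on 4× images. Treatment had been applied by pin tool the day after seeding as one drug alone or as a fixed anchor-drug dose with five library-drug doses (not always all listed) in √10 steps. Relative viability is the nuclei count of treated wells divided by that of vehicle wells, and values are medians of duplicate plates.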

[2] = compound: COC1=CC=C(C=C1)CN2C=CC3=C2C=C(C=C3)C(=O)NO + CC(C)C[C@H](NC(=O)[C@H](Cc1ccccc1)NC(=O)c1cnccn1)B(O)O [Bortezomib] (partner 0.002 µM)
Method in brief: as §1

[3] = compound: COC1=CC=C(C=C1)CN2C=CC3=C2C=C(C=C3)C(=O)NO + CS(=O)(=O)CCNCc1ccc(-c2ccc3ncnc(Nc4ccc(OCc5cccc(F)c5)c(Cl)c4)c3c2)o1 [Lapatinib] (partner 2 µM)
Method in brief: as §1

[4] = compound: COC1=CC=C(C=C1)CN2C=CC3=C2C=C(C=C3)C(=O)NO + O=C(c1cc(Cc2n[nH]c(=O)c3ccccc23)ccc1F)N1CCN(C(=O)C2CC2)CC1 [Olaparib] (partner 8 µM)
Method in brief: as §1

Row | Cell Line | relative viability ([1]; first compound 0.08 µM) | relative viability ([1]; first compound 0.253 µM) | relative viability ([1]; first compound 0.8 µM) | relative viability ([1]; first compound 2.53 µM) | relative viability ([1]; first compound 8 µM) | relative viability ([2]; first compound 0.08 µM) | relative viability ([2]; first compound 0.253 µM) | relative viability ([2]; first compound 0.8 µM) | relative viability ([2]; first compound 2.53 µM) | relative viability ([2]; first compound 8 µM) | relative viability ([3]; first compound 0.08 µM) | relative viability ([3]; first compound 0.253 µM) | relative viability ([3]; first compound 0.8 µM) | relative viability ([3]; first compound 2.53 µM) | relative viability ([3]; first compound 8 µM) | relative viability ([4]; first compound 0.08 µM) | relative viability ([4]; first compound 0.253 µM) | relative viability ([4]; first compound 0.8 µM) | relative viability ([4]; first compound 2.53 µM) | relative viability ([4]; first compound 8 µM)
1 | COR-L23 | 0.167 | 0.197 | 0.203 | 0.201 | 0.169 | 0.93 | 0.996 | 1.08 | 1.03 | 0.922 | 0.736 | 1.07 | 0.937 | 1.02 | 0.84 | 0.256 | 0.382 | 0.292 | 0.369 | 0.286
2 | HCC-15 | 0.208 | 0.515 | 0.391 | 0.327 | 0.318 | 0.854 | 1.09 | 1.13 | 1.02 | 0.998 | 0.458 | 0.875 | 0.843 | 0.842 | 0.73 | 0.635 | 0.71 | 0.729 | 0.846 | 0.728
3 | NCI-H1651 | 0.574 | 0.717 | 0.799 | 0.713 | 0.645 | 0.923 | 0.887 | 0.923 | 0.888 | 0.857 | 0.425 | 0.886 | 0.857 | 0.767 | 0.746 | 0.168 | 0.158 | 0.194 | 0.182 | 0.179
4 | CAL-12T | 0.293 | 0.344 | 0.362 | 0.328 | 0.323 | 0.987 | – | 1.06 | 1.06 | 0.862 | 0.215 | – | 0.715 | 0.755 | 0.605 | 0.674 | 0.675 | 0.709 | 0.735 | 0.649
5 | LK-2 | – | 0.196 | 0.197 | 0.157 | 0.174 | – | – | – | – | – | – | 0.909 | 0.932 | 0.955 | 0.82 | – | 0.792 | 0.787 | 0.688 | 0.722
6 | NCI-H1703 | – | – | – | – | – | 0.322 | 0.403 | 0.327 | 0.32 | 0.26 | 0.691 | 1.16 | 1.1 | 1.07 | 0.873 | – | 0.581 | 0.817 | 0.491 | 0.46
7 | H3255 | 0.457 | 0.393 | 0.639 | 0.497 | 0.604 | 0.73 | 0.623 | 0.733 | 0.739 | 0.894 | 0.184 | 0.247 | 0.221 | 0.238 | 0.226 | 0.549 | 0.482 | 0.605 | 0.579 | 0.532
8 | NCI-H1792 | – | – | – | – | – | 0.95 | 0.945 | 0.979 | 0.931 | 0.7 | 0.867 | 0.906 | 0.824 | 0.915 | 0.836 | 0.438 | 0.578 | 0.445 | 0.447 | 0.561
9 | NCI-H1648 | 0.415 | 0.573 | 0.479 | 0.399 | 0.473 | – | – | – | – | – | – | – | – | – | – | 0.81 | 0.725 | 0.964 | 0.932 | 0.651
10 | EBC-1 | – | – | – | – | – | 0.574 | 0.496 | 0.532 | 0.54 | 0.44 | – | 0.226 | 0.211 | 0.232 | 0.208 | – | 0.656 | 0.748 | 0.695 | 0.633
11 | NCI-H1395 | 0.673 | 0.817 | 0.761 | 0.781 | 0.565 | – | – | – | – | – | 0.674 | 0.851 | 0.937 | 0.93 | 0.778 | – | 0.419 | 0.49 | 0.496 | 0.436
12 | ChaGo-K-1 | – | 0.249 | 0.211 | 0.214 | 0.234 | – | 0.752 | 0.962 | 0.942 | 0.868 | – | – | – | – | – | – | 0.459 | 0.424 | 0.409 | 0.324
13 | NCI-H441 | 0.679 | 0.604 | 0.561 | 0.768 | 0.493 | 0.331 | 0.406 | 0.543 | 0.497 | 0.413 | – | – | – | – | – | 0.441 | 0.58 | 0.526 | 0.497 | 0.609
14 | SK-MES-1 | 0.816 | 0.895 | 0.868 | 0.874 | 0.81 | – | – | – | – | – | 0.473 | 0.519 | 0.534 | 0.497 | 0.446 | 0.788 | 0.665 | 0.676 | 0.64 | 0.598
15 | NCI-H2170 | 0.439 | 0.869 | 0.694 | 0.729 | 0.616 | – | – | – | – | – | 0.187 | 0.282 | 0.26 | 0.27 | 0.245 | 0.55 | 0.556 | 0.635 | 0.648 | 0.523
16 | A549 | – | – | – | – | – | – | – | – | – | – | – | 0.931 | 1.09 | 0.953 | 0.915 | – | 0.38 | 0.39 | 0.337 | 0.252
17 | NCI-H1944 | – | 0.262 | 0.261 | 0.262 | 0.234 | – | – | – | – | – | – | 0.834 | 0.86 | 0.817 | 0.701 | – | 0.425 | 0.422 | 0.423 | 0.374
18 | NCI-H1793 | – | 0.337 | 0.297 | 0.398 | 0.3 | – | – | – | – | – | 0.343 | 0.751 | 0.688 | 0.705 | 0.598 | – | 0.911 | 0.898 | 0.893 | 0.865
19 | SW 900 | 0.558 | 0.647 | 0.574 | 0.612 | 0.489 | – | – | – | – | – | – | – | – | – | – | 0.759 | 0.956 | 0.769 | 0.849 | 0.604
20 | LCLC-103H | 0.445 | 0.523 | 0.489 | 0.534 | 0.433 | 0.982 | 0.998 | 1.11 | 1 | 1.06 | – | – | – | – | – | 0.743 | 0.777 | 0.773 | 0.781 | 0.708
21 | NCI-H1299 | – | – | – | – | – | 0.994 | 1.06 | 1.04 | 1.03 | 1.03 | 0.959 | 0.979 | 0.969 | 0.934 | 0.923 | 1.04 | 0.98 | 0.948 | 1.03 | 0.92
22 | NCI-H1563 | – | – | – | – | – | 0.788 | 0.916 | 0.95 | 0.839 | 0.69 | 0.769 | 0.939 | 0.953 | 0.862 | 0.748 | – | – | – | – | –
23 | NCI-H522 | – | 0.589 | 0.53 | 0.613 | 0.545 | – | – | – | – | – | – | – | – | – | – | – | 0.669 | 0.693 | 0.65 | 0.568
